Measurements published in patent US5180742A, “Quinone derivatives, their production and use” (Takeda Chemical Industries, Ltd., priority 1984, dated 1993).
One block for each compound: values may come before it.

Assays:
[1] = test system: Immunoglobulin-G1 mediated bronchoconstriction reaction; assay: Action on immunoglobulin-G1 mediated bronchoconstriction reaction in guinea pigs; format: in vivo, Hartley guinea pigs; conditions: Cavia porcellus; 20 mg/kg oral, 1 hour before antigen
Method: Action on the Immunoglobulin-G1 Mediated Bronchoconstriction Reaction in Guinea Pigs
In accordance with the method of Orange and Moore (Orange, R. P. and Moore E. G. , J. Immunol., 116, 392-397, 1976), female and male Hartley guinea pigs weighing about 350 g were sensitized by intraperitoneal application of an emulsion (1 ml) composed of egg albumin (1 mg) and Freund's complete adjuvant (produced by Wako Pure-Chemical Industries, Ltd. of Japan). 3 Weeks after the sensitization, a serum antibody level in the sensitized guinea pigs was measured by means of the 3-hours passive cutaneous anaphylaxis (PCA) reaction in guinea pigs. […] The broncoconstriction reaction resulting from the antigen-antibody reaction was measured in accordance with the Konzett-Rossler method (Konzett, H. and Rossler, R., Naunyn-Schmiedeberg'ss Arch. exp. Path. pharmak., 195, 71-74, 1940). The guinea pigs were fixed on the dorsal position under anesthesia with a urethane (1.5 g/kg given intraperitonealy). An incision was made through the trachea, which was connected to an artificial respirator (manufactured by Harvard Co.) through an endotracheal tube, with a side tube of the endotracheal tube being attached to a brochoconstricting transducer (type 7020, manufactured by Ugobasile Co.). While an air volume per ventilation was adjusted to 5 to 7 ml and an air ventilation rate was controlled at 70 times/min., with a load pressure to the lung set at 10 cm H2 O, the overflown air volume was recorded on Rectigraphy-8S (manufactured by Sanei Sokki Inc. of Japan) through a transducer. After 1 mg/kg of gallamine triethiodide was given intravenously to the animals, 1 mg/kg of antigen, egg albumin dissolved in physiological saline, was applied intravenously to induce a brochoconstriction reaction. The bronchconstriction reaction was recorded for the period of time of 15 minutes. A drug was suspended in 5% gum arabic solution, and given orally 1 hour before the application of the antigen. Percent inhibition of the immunoglobuin G1 mediated bronchoconstriction reaction in guinea pigs are shown below in Table 3.

mice of ICR breed = format: in vivo; conditions: 1000 mg/kg oral, male ICR mice, 7 days
From the text: Acute Toxicity Test in Mice (Acute Toxicity)
1000 Milligrams per kilogram of each set specimen was applied orally to groups of 5 five-weeks old male mice of ICR breed, and a number of dead animals observed for the 7-days period was counted.

[2] = test system: LTD4-induced bronchoconstriction; assay: Effect on LTD4-induced bronchoconstriction in guinea pigs; format: in vivo
Method: Effect on LTD4 -Induced Brochoconstriction in Guinea Pigs
Bronchoconstriction in guinea pigs was measured by the method of Konzett-Rossler[Naunyn-Schmiedeberg's Arch. exp. Path. Pharmak., 195, 71-74(1940)]. The animals were anesthetized with urethane (1.5 g/kg, intraperitoneally) and the trachea was cannulated. The animals were artificially ventilated by means of a respirator (Harvard apparatus rodent respirator) at a rate of 70 strokes/min and a constant volume of 5-7 ml. Inflation pressure was kept constantly at 10 cm H2 O. Changes in overflow of air from a side-arm of the cannula were recorded on Rectigraph-8S via a bronchospasm transducer for 15 min. LTD4 (10 μg/kg) was given into the […] through an indwelling cannula. Each specimen suspended in a 5% gum arabic solution was also given through the same cannula 1 or 24 hrs before the LTD4 administraction.

[3] = test system: PAF-induced bronchoconstriction; assay: Effect on PAF-induced bronchoconstriction in guinea pigs; format: in vivo; conditions: one hour before PAF
Method: Platelet Activating Factor (PAF)-Induced Bronchoconstriction in Guinea Pigs
Experimental procedure in this experiment was the same as that in LTD4 -induced bronchoconstriction shown in Experimental example 7. PAF is an intraveneous dose of 1 μg/kg was used. Each specimen suspended in a 5% gum arabic solution was given orally one hour before the PAF administration.

[4] = test system: lipid peroxides production in rat brain homogenates; assay: Inhibitory action on lipid peroxides production in rat brain homogenates (thiobarbituric acid method); format: biochemical, rat (SD); conditions: n = 4-6
Method: Inhibitory Action on Lipid Peroxides Production in Rat Brain Homogenates
The male SD rat brain tissue was used as 5% homogenate in phosphate-buffered solution. After incubation of the homogenate for 1 hour at 37° C., the amount of lipid peroxides produced was determined by the thiobarbituric acid method according to the description of Ohkawa et al. (Analytical Biochemistry, 95: 551, 1979)
Test compounds were used as a solution of dimethylsulfoxide. The inhibitory action on lipid peroxide production was expressed as a % inhibition as compared with the amount of production in the vehicle group. Results

5-Lipoxygenase = molecular target: T1, 5-Lipoxygenase (Rattus norvegicus, UniProt P12527); assay: 5-Lipoxygenase inhibitory activity: 5-HETE production in RBL-1 cells (HPLC); format: cell-based, rat (RBL-1, rat basophilic leukemia cells); conditions: arachidonic acid + A 23187, 37° C., 20 minutes, read-out: 5-HETE production inhibiting effect (IC50)
T1 construct: endogenous in cells; host or cells: RBL-1 (rat basophilic leukemia cells)
T1 sequence (P12527 1-673): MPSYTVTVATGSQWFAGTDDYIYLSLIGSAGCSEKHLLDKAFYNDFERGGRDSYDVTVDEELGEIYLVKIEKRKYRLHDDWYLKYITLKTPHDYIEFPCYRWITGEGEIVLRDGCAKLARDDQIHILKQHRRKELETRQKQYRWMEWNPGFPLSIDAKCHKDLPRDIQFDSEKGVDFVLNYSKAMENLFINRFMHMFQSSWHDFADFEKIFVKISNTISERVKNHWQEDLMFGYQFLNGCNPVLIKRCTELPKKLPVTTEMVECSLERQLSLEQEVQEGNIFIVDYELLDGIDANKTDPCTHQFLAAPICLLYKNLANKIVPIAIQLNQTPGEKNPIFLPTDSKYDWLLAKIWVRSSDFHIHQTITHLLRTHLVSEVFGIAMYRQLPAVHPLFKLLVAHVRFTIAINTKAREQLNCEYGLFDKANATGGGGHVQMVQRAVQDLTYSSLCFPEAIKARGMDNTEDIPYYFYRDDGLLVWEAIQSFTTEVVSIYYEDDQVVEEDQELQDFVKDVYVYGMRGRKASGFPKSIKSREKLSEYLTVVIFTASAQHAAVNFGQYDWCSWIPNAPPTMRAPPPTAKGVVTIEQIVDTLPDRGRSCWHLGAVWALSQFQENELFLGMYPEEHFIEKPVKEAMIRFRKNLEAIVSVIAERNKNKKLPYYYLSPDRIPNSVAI
Method: 5-Lipoxygenase Inhibitory Activity
10^7 RBL-1 cells (rat basophilic leukemia cells) were suspended in 0.5 ml of MCM (mast cell medium), and test solutions (made up of 0.5 ml of MCM, 50 μg of arachidonic acid, 10 μg of A 23187 (calcium ionophore, Eli Lilly) and 1 μM, 0.1 μM, 0.01 μM and0.001 μM as the final concentration of the quinone compound, respectively) prepared previously were added respectively to the suspension, followed by reaction at 37° C. for 20 minutes. After the conclusion of the reaction, 4 ml of ethanol and 1,4-dimethoxy-2-methyl-3-(3-methoxypropyl)naphthalene as the internal reference drug were added to the reaction solution, and the mixture was shaken thoroughly and allowed to stand at room temperature for 10 minutes. Then, it was centrifuged (2000 r.p.m.) for 10 minutes, and the supernatant fluid was separated and concentrated to dryness under reduced pressure. 0.5 Milliliter of 60% aqueous methanol was added to the concentrate, and 100 μl of the resulting solution was taken and subjected to high-performance liquid chromatography to determine amount of 5-HETE (5-hydroxyeicosatetraenoic acid). Determination of 5-HETE was made through measurement of an absorption at 237 nm with a UV absorption monitor.
The 5-HETE production inhibitory effect (IE) was expressed by [formula] wherein a is a peak height or peak area corrected by the peak for the internal reference when the quinone compound is not contained; b is a peak height or peak area corrected by the peak for the internal reference when the quinone compound is contained.

[5] = test system: O2^- production in guinea pigs peritoneal macrophages; assay: Inhibitory effect on O2- production in guinea pig peritoneal macrophages (chemiluminescence); format: cell-based, guinea pig (Hartley); conditions: Cavia porcellus, Peritoneal macrophage, 3 experiments
Method: Superoxide (O2^-) Production in Guinea Pig Peritoneal Macrophages
Male Hartley guinea pigs weighing 400-450 g were given intraperitoneally 5 ml of liquid paraffin. Four days later, 15 ml of Hank's buffer were administered into the peritoneal cavity for harvest of peritoneal cells. Macrophages in the peritoneal cells were purified by the method of Wood, P. R. [J. Immunol. Methods, 28, 117-124 (1979)].
The purity of macrophages was more than 95%. The reaction mixture contained 75 μl of macrophages (1×10^7 cells/ml), 5 μl of luminol, 10 μl of phorbol myristate acetate and 10 μl of drugs in a total volume of 100 μl. O2^- Product was assayed by chemiluminescence. Drugs were dissolved in a 10% dimethyl sulfoxide.

Compound: CC1=C(C)C(=O)C(C(CCCCCC(=O)O)c2ccc(Cl)cc2)=C(C)C1=O (stereo not shown) [Compound No. 90, 7-(4-chlorophenyl)-7-(3,5,6-trimethyl-1,4-benzoquinon-2-yl)heptanoic acid]
inhibition in vivo at 20 mg/kg [1]: 61% | Acute toxicity (number of dead animals/number of animals used) (mice of ICR breed): 0/5

Compound: COc1ccc(C(CCCCC(=O)O)C2=C(C)C(=O)C(C)=C(C)C2=O)cc1 (stereo not shown) [Compound No. 22, 6-(3,5,6-trimethyl-1,4-benzoquinon-2-yl)-6-(4-methoxyphenyl)hexanoicacid]
% Inhibition of LTD4-induced bronchoconstriction ([2]; 0.313 mg/kg, 1 hr. before LTD4): 39% | % Inhibition of LTD4-induced bronchoconstriction ([2]; 1.25 mg/kg, 1 hr. before LTD4): 85% | % Inhibition of LTD4-induced bronchoconstriction ([2]; 5 mg/kg, 1 hr. before LTD4): 90% | % Inhibition of LTD4-induced bronchoconstriction ([2]; 5 mg/kg, 24 hrs. before LTD4): 24% | inhibition in vivo at 20 mg/kg [1]: 82% | % Inhibition of PAF-induced bronchoconstriction ([3]; 0.313 mg/kg oral): 43% | % Inhibition of PAF-induced bronchoconstriction ([3]; 1.25 mg/kg oral): 92% | % Inhibition of PAF-induced bronchoconstriction ([3]; 5 mg/kg oral): 91%

Compound: COc1ccc(C(CCCCCC(=O)O)C2=C(C)C(=O)C(C)=C(C)C2=O)cc1OC (stereo not shown) [compound 97]
inhibition in vivo at 20 mg/kg [1]: 85% | Acute toxicity (number of dead animals/number of animals used) (mice of ICR breed): 0/5

Compound: CC1=C(C)C(=O)C(C(CCCCCC(=O)O)c2ccc(C(C)C)cc2)=C(C)C1=O (stereo not shown) [compound 95]
inhibition in vivo at 20 mg/kg [1]: 63% | Acute toxicity (number of dead animals/number of animals used) (mice of ICR breed): 0/5

Compound: tocopherol [reference compound]
Inhibition of lipid peroxides production ([4]; 10^-4 M): 46.5 ± 2.5% | Inhibition of lipid peroxides production ([4]; 10^-5 M): 51.8 ± 10.2% | Inhibition of lipid peroxides production ([4]; 10^-6 M): 0%

IC50 (5-Lipoxygenase): 10 nM
Compound: COc1ccc(C(CCCCCC(=O)O)C2=C(C)C(=O)C(C)=C(C)C2=O)cc1 (stereo not shown) [compound 23]
% Inhibition of LTD4-induced bronchoconstriction ([2]; 0.313 mg/kg, 1 hr. before LTD4): 69% | % Inhibition of LTD4-induced bronchoconstriction ([2]; 1.25 mg/kg, 1 hr. before LTD4): 80% | % Inhibition of LTD4-induced bronchoconstriction ([2]; 5 mg/kg, 1 hr. before LTD4): 68% | % Inhibition of LTD4-induced bronchoconstriction ([2]; 5 mg/kg, 24 hrs. before LTD4): 49% | inhibition in vivo at 20 mg/kg [1]: 83% | % Inhibition of PAF-induced bronchoconstriction ([3]; 0.08 mg/kg oral): 75% | % Inhibition of PAF-induced bronchoconstriction ([3]; 0.313 mg/kg oral): 71% | % Inhibition of PAF-induced bronchoconstriction ([3]; 1.25 mg/kg oral): 73%

Compound: Cc1c(C)c2c(c(C)c1O)CCC(C)(CCCC(C)CCCC(C)CCCC(C)C)O2 (racemic) [dl-α-tocophenol, reference compound]
inhibition at 100 µM ([5]; 10^-4 M): 11 ± 6% | inhibition at 10 µM ([5]; 10^-5 M): 3 ± 2%

Compound: CC1=C(C)C(=O)C(C(CCCCCC(=O)O)c2ccc(C)s2)=C(C)C1=O (stereo not shown) [compound 33]
inhibition in vivo at 20 mg/kg [1]: 75% | Acute toxicity (number of dead animals/number of animals used) (mice of ICR breed): 0/5

Compound: COC1=C(OC)C(=O)C(C(CCCCCC(=O)O)c2ccc(C)cc2)=C(C)C1=O (stereo not shown) [compound 94]
inhibition in vivo at 20 mg/kg [1]: 81% | Acute toxicity (number of dead animals/number of animals used) (mice of ICR breed): 0/5

Compound: CC1=C(C)C(=O)C(C(CCCCCC(=O)O)c2ccc(F)cc2)=C(C)C1=O (stereo not shown) [Compound No. 87]
% Inhibition of LTD4-induced bronchoconstriction ([2]; 0.313 mg/kg, 1 hr. before LTD4): 80% | % Inhibition of LTD4-induced bronchoconstriction ([2]; 1.25 mg/kg, 1 hr. before LTD4): 89% | % Inhibition of LTD4-induced bronchoconstriction ([2]; 5 mg/kg, 1 hr. before LTD4): 93% | % Inhibition of LTD4-induced bronchoconstriction ([2]; 5 mg/kg, 24 hrs. before LTD4): 79% | inhibition in vivo at 20 mg/kg [1]: 81% | IC50 (5-Lipoxygenase): 100 nM | Acute toxicity (number of dead animals/number of animals used) (mice of ICR breed): 0/5 | % Inhibition of PAF-induced bronchoconstriction ([3]; 0.08 mg/kg oral): 64% | % Inhibition of PAF-induced bronchoconstriction ([3]; 0.313 mg/kg oral): 48% | % Inhibition of PAF-induced bronchoconstriction ([3]; 1.25 mg/kg oral): 71%

Compound: CC1=C(C(CCCCCC(=O)O)c2ccc(Cl)cc2)C(=O)c2ccccc2C1=O (stereo not shown) [compound 92]
inhibition in vivo at 20 mg/kg [1]: 92% | Acute toxicity (number of dead animals/number of animals used) (mice of ICR breed): 0/5

Compound: COC1=C(OC)C(=O)C(C(CCCCCC(=O)O)c2ccc(F)cc2)=C(C)C1=O (stereo not shown) [compound 88]
inhibition in vivo at 20 mg/kg [1]: 79% | Acute toxicity (number of dead animals/number of animals used) (mice of ICR breed): 0/5

Compound: CC1=C(C)C(=O)C(C(CCCC(=O)O)c2ccccc2)=C(C)C1=O (stereo not shown) [compound 36]
inhibition in vivo at 20 mg/kg [1]: 80% | IC50 (5-Lipoxygenase): 320 nM | Acute toxicity (number of dead animals/number of animals used) (mice of ICR breed): 0/5
